This experiment deals with T1, human HPK1 (MAP4K1) (Homo sapiens, UniProt Q92918).
T1 construct: Recombinant human HPK1 kinase domain was obtained from ThermoFisher (Cat. #PV6357) and SignalChem (Cat. #M23-11G); purchased ThermoFisher; SignalChem PV6357; M23-11G
T1 sequence (Q92918 17-274 limits assumed): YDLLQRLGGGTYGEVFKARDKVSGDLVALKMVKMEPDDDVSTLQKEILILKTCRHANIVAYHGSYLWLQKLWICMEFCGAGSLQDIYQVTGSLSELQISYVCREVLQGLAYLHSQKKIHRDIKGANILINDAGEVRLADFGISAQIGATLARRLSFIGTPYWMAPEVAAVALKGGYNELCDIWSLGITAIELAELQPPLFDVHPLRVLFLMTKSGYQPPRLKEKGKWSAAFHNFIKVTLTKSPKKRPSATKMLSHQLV
In words: Biochemical assay for activity against HPK1 (ADP-Glo, MBP substrate). The settings on record: recombinant human HPK1 kinase domain, 1 nM enzyme, ADP-Glo luminescence. The method, boiled down:
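IC50s come from ADP-Glo luminescence after a 2 h room-temperature reaction phosphorylating MBP in the presence of ATP. Compound was first preincubated 15 min with 1 nM HPK1 kinase domain, human recombinant. Buffer: 50 mM HEPES pH 7.5, 150 mM NaCl, 3 mM TCEP, 10 mM MgCl2, 0.005% Tween-20, 0.01% BSA.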

Bounds are passed on as bounds.

`COc1cc2c(cc1Nc1ncc3cnn([C@H]4CC[C@H](CO)CC4)c3n1)CN(CCO)CC2` [Example 167, 2-[7-[[1-[4-(hydroxymethyl)cyclohexyl]pyrazolo[3,4-d]pyrimidin-6-yl]amino]-6-methoxy-3,4-dihydro-1H-isoquinolin-2-yl]ethanol]: the half-inhibitory concentration (IC50) is under 100 nM.
As for `COc1nc2c(cc1Nc1ncc3cnn(C[C@@H]4CCCN4C(C)=O)c3n1)CN(C)CC2` [Example 198], the concentration for half-maximal inhibition (IC50) is under 100 nM.
For the compound `COc1cc2c(cc1Nc1ncc3cnn(C[C@@H]4CC[C@@H](O)CN4C(C)=O)c3n1)CN(C)CC2` [Example 225, 1-((2S,5R)-5-hydroxy-2-((6-((6-methoxy-2-methyl-1,2,3,4-tetrahydroisoquinolin-7-yl)amino)-1H-pyrazolo[3,4-d]pyrimidin-1-yl)methyl)piperidin-1-yl)ethan-1-one], the half-inhibitory concentration (IC50) was under 100 nM.
For the compound `COc1cc2c(cc1Nc1ncc3cnn([C@H]4CCC[C@@H](O)C4)c3n1)CN(C)CC2` (relative stereo) [Example 23, cis-3-(6-((6-methoxy-2-methyl-1,2,3,4-tetrahydroisoquinolin-7-yl)amino)-1H-pyrazolo[3,4-d]pyrimidin-1-yl)cyclohexan-1-ol], the 50% inhibitory concentration (IC50) was under 100 nM.
In the case of `COc1cc2c(cc1Nc1ncc3cnn(C[C@@H]4CC[C@H](O)CN4C(C)=O)c3n1)CN(C)CC2` [Example 224, 1-((2S,5S)-5-hydroxy-2-((6-((6-methoxy-2-methyl-1,2,3,4-tetrahydroisoquinolin-7-yl)amino)-1H-pyrazolo[3,4-d]pyrimidin-1-yl)methyl)piperidin-1-yl)ethan-1-one], the IC50 is under 100 nM.
To `COc1cc2c(cc1Nc1ncc3cnn(C[C@H](C)NC(C)=O)c3n1)CN(C)CC2` [Example 93, N-[(1S)-2-[6-[(6-methoxy-2-methyl-3,4-dihydro-1H-isoquinolin-7-yl)amino]pyrazolo[3,4-d]pyrimidin-1-yl]-1-methyl-ethyl]acetamide] belongs under 100 nM; to `COc1cc2c(cc1Nc1ncc3cnn([C@H]4CC[C@@H](C(=O)O)CC4)c3n1)CN(C)CC2` [Example 26, (1s,4s)-4-(6-((6-methoxy-2-methyl-1,2,3,4-tetrahydroisoquinolin-7-yl)amino)-1H-pyrazolo[3,4-d]pyrimidin-1-yl)cyclohexane-1-carboxylic acid], under 100 nM; to `COc1cc2c(cc1Nc1ncc3cnn([C@H]4CCC[C@H](C(=O)N(C)C)C4)c3n1)CN(C)CC2` (racemic) [Example 59, rac-(trans)-3-(6-((6-methoxy-2-methyl-1,2,3,4-tetrahydroisoquinolin-7-yl)amino)-1H-pyrazolo[3,4-d]pyrimidin-1-yl)-N,N-dimethylcyclohexane-1-carboxamide], under 100 nM.
`COc1cc2c(cc1Nc1ncc3cnn([C@H]4CC[C@H](O)CC4)c3n1)CN(CCO)CC2` [Example 156, trans-4-(6-((2-(2-hydroxyethyl)-6-methoxy-1,2,3,4-tetrahydroisoquinolin-7-yl)amino)-1H-pyrazolo[3,4-d]pyrimidin-1-yl)cyclohexan-1-ol]: the IC50 was under 100 nM.
Turning to `COc1cc2c(cc1Nc1ncc3cnn(C4CC(CO)(CO)C4)c3n1)CN(C)CC2` [Example 77, [1-(hydroxymethyl)-3-[6-[(6-methoxy-2-methyl-3,4-dihydro-1H-isoquinolin-7-yl)amino]pyrazolo[3,4-d]pyrimidin-1-yl]cyclobutyl]dimethanol], the concentration for half-maximal inhibition (IC50) was under 100 nM.
Consider `COc1cc2c(cc1Nc1ncc3cnn([C@H]4C[C@H](CNS(=O)(=O)C5CC5)C4)c3n1)CN(C)CC2` [Example 123, N-[[3-[6-[(6-methoxy-2-methyl-3,4-dihydro-1H-isoquinolin-7-yl)amino]pyrazolo[3,4-d]pyrimidin-1-yl]cyclobutyl]methyl]cyclopropanesulfonamide], for which the IC50 is under 100 nM.
Consider `CN1CCc2ccc(Nc3ncc4cnn(C5COC5)c4n3)cc2C1` [Example 1, 2-methyl-N-(1-(oxetan-3-yl)-1H-pyrazolo[3,4-d]pyrimidin-6-yl)-1,2,3,4-tetrahydroisoquinolin-7-amine], for which the IC50 was under 100 nM.
To `COc1cc2c(cc1Nc1ncc3cnn(C[C@@H]4CCC[C@H]4C(=O)O)c3n1)CN(C)CC2` (racemic) [Example 182, racemic trans-2-((6-((6-methoxy-2-methyl-1,2,3,4-tetrahydroisoquinolin-7-yl)amino)-1H-pyrazolo[3,4-d]pyrimidin-1-yl)methyl)cyclopentane-1-carboxylic Acid] belongs under 100 nM; to `COc1cc2c(cc1Nc1ncc3cnn(C[C@@H]4CCCN4C(=O)C(F)F)c3n1)CN(C)CC2` [Example 186, (S)-2,2-difluoro-1-(2-((6-((6-methoxy-2-methyl-1,2,3,4-tetrahydroisoquinolin-7-yl)amino)-1H-pyrazolo[3,4-d]pyrimidin-1-yl)methyl)pyrrolidin-1-yl)ethan-1-one], under 100 nM.
Turning to `COc1cc2c(cc1Nc1ncc3cnn(C[C@@H]4C[C@H](O)CN4C(C)=O)c3n1)CN(C)CC2` [Example 221, 1-((2S,4S)-4-hydroxy-2-((6-((6-methoxy-2-methyl-1,2,3,4-tetrahydroisoquinolin-7-yl)amino)-1H-pyrazolo[3,4-d]pyrimidin-1-yl)methyl)pyrrolidin-1-yl)ethan-1-one], the IC50 was under 100 nM.
To `COc1cc2c(cc1Nc1ncc3cnn(CCN(C)S(C)(=O)=O)c3n1)CN(C)CC2` [Example 92, N-[2-[6-[(6-methoxy-2-methyl-3,4-dihydro-1H-isoquinolin-7-yl)amino]pyrazolo[3,4-d]pyrimidin-1-yl]ethyl]-N-methyl-methanesulfonamide] belongs 100 to 250 nM.
To `CCN1CCc2cc(OC)c(Nc3ncc4cnn([C@H]5CC[C@H](O)CC5)c4n3)cc2C1` [Example 155, trans-4-(6-((2-ethyl-6-methoxy-1,2,3,4-tetrahydroisoquinolin-7-yl)amino)-1H-pyrazolo[3,4-d]pyrimidin-1-yl)cyclohexan-1-ol] belongs under 100 nM; to `COc1cc2c(cc1Nc1ncc3cnn(C[C@]4(C)CCCN4C(C)=O)c3n1)CN(C)CC2` [Example 135, (S)-1-(2-((6-((6-methoxy-2-methyl-1,2,3,4-tetrahydroisoquinolin-7-yl)amino)-1H-pyrazolo[3,4-d]pyrimidin-1-yl)methyl)-2-methylpyrrolidin-1-yl)ethan-1-one], under 100 nM.
Take `COc1cc2c(cc1Nc1ncc3cnn(C[C@@H]4[C@@H](F)CCN4C(C)=O)c3n1)CN(C)CC2` [Example 213, 1-[(2R,3S)-3-fluoro-2-[[6-[(6-methoxy-2-methyl-3,4-dihydro-1H-isoquinolin-7-yl)amino]pyrazolo[3,4-d]pyrimidin-1-yl]methyl]pyrrolidin-1-yl]ethanone]: the IC50 was under 100 nM.
For `CCOC(=O)CCCn1ncc2cnc(Nc3ccc4c(c3)CN(C)CC4)nc21` [Example 8, Ethyl 4-(6-((2-methyl-1,2,3,4-tetrahydroisoquinolin-7-yl)amino)-1H-pyrazolo[3,4-d]pyrimidin-1-yl)butanoate], the half-inhibitory concentration (IC50) was under 100 nM.
For `COc1cc2c(cc1Nc1ncc3cnn([C@H]4CCCC[C@@H]4C)c3n1)CN(C)CC2` (racemic) [Example 30, rac-6-methoxy-2-methyl-N-(1-((1S,2S)-2-methylcyclohexyl)-1H-pyrazolo[3,4-d]pyrimidin-6-yl)-1,2,3,4-tetrahydroisoquinolin-7-amine], the IC50 is 100 to 250 nM.
As to `COc1cc2c(cc1Nc1ncc3cnn(C[C@@H]4CCCN(C(C)=O)C4)c3n1)CN(C)CC2` [Example 140, 1-[(3R)-3-[[6-[(6-methoxy-2-methyl-3,4-dihydro-1H-isoquinolin-7-yl)amino]pyrazolo[3,4-d]pyrimidin-1-yl]methyl]-1-piperidyl]ethan-1-one], the IC50 was under 100 nM.
With `COc1cc2c(cc1Nc1ncc3cnn([C@@H]4CC[C@H](CO)C4)c3n1)CN(C)CC2` (relative stereo) [Example 24], the IC50 is under 100 nM.
Consider `COc1cc2c(cc1Nc1ncc3cnn(C[C@@H]4CC[C@H](C)N4C(C)=O)c3n1)CN(C)CC2` [Example 171, 1-[(2S,5S)-2-[[6-[(6-methoxy-2-methyl-3,4-dihydro-1H-isoquinolin-7-yl)amino]pyrazolo[3,4-d]pyrimidin-1-yl]methyl]-5-methyl-pyrrolidin-1-yl]ethanone], for which the IC50 was under 100 nM.
For `CNC(=O)[C@@H]1CCC[C@@H](n2ncc3cnc(Nc4cc5c(cc4OC)CCN(C)C5)nc32)C1` [Example 53, (1R,3R)-3-(6-((6-methoxy-2-methyl-1,2,3,4-tetrahydroisoquinolin-7-yl)amino)-1H-pyrazolo[3,4-d]pyrimidin-1-yl)-N-methylcyclohexane-1-carboxamide], the IC50 is under 100 nM.
As for `COc1cc2c(cc1Nc1ncc3cnn(C[C@@H]4[C@@H](C)[C@H](F)CN4C(C)=O)c3n1)CN(C)CC2` [Example 191, 1-((2S,3R,4S)-4-fluoro-2-((6-((6-methoxy-2-methyl-1,2,3,4-tetrahydroisoquinolin-7-yl)amino)-1H-pyrazolo[3,4-d]pyrimidin-1-yl)methyl)-3-methylpyrrolidin-1-yl)ethan-1-one], the IC50 was under 100 nM.
Regarding `COc1cc2c(cc1Nc1ncc3cnn(C[C@@H]4[C@@H](C)[C@@H](O)CN4C(C)=O)c3n1)CN(C)CC2` [Example 163, 1-[(2S,3R,4S)-4-hydroxy-2-[[6-[(6-methoxy-2-methyl-3,4-dihydro-1H-isoquinolin-7-yl)amino]pyrazolo[3,4-d]pyrimidin-1-yl]methyl]-3-methyl-pyrrolidin-1-yl]ethenone], the IC50 is under 100 nM.

For the origin of these results see US11918582B2 (RAPT Therapeutics, Inc., priority 2021, dated 2024).
